Here are results for 34 molecules from patent US20120004244A1, “Bis Aromatic Compounds for Use as LTC4 Synthase Inhibitors” (BIOLIPOX AB, priority 2009, published 2012).

One assay has as its target T1, Recombinant human LTC4 synthase (Homo sapiens, UniProt Q16873).
T1 construct: made in house; host or cells: Pichia pastoris ('Piccia pastoralis' [sic])
T1 sequence (Q16873 1-150): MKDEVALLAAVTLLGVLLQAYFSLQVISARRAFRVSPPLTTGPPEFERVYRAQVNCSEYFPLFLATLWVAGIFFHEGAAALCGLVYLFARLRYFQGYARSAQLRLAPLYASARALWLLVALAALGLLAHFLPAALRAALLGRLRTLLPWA
As to the kind of experiment: LTC4 synthase in vitro assay (LTA4 to LTC4, HTRF detection). It counts as biochemical.
Conditions: not given
A digest of the protocol:
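Purified recombinant human LTC4 synthase expressed in Pichia (0.5 μg/mL total protein) was preincubated with inhibitor at 10 μM final for 10 min at room temperature in PBS pH 7.4 with 5 mM GSH. LTA4 was then added at 2.5 μM final, and after 5 min at room temperature LTC4 was detected by HTRF.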
On the technique in general: Time-resolved FRET reads energy transfer from a long-lived donor to a nearby acceptor.
For `COc1ccc(C(=O)Nc2ccc(C(=O)c3ccc(N(CC4CC4)c4ccc(Cl)cc4)cn3)cc2C(=O)O)c(OC)c1` [3:22, 5-{5-[(4-Chlorophenyl)(cyclopropylmethyl)amino]picolinoyl}-2-(2,4-dimethoxy-benzamido)benzoic acid], the IC50 – broadly, the concentration that inhibits the measured activity by half – was 16 nM.
For `COc1cccc(C(=O)Nc2ccc(C(=O)c3ccc(N(CC4CC4)c4ccc(Cl)cc4)cn3)cc2C(=O)O)c1` [3:23, 5-{5-[(4-Chlorophenyl)(cyclopropylmethyl)amino]picolinoyl}-2-(3-methoxy-benzamido)benzoic acid], the half-inhibitory concentration (IC50) worked out at 33 nM.
Still for that read-out and setting: for `O=C(Nc1ccc(C(=O)c2ccc(N(CC3CC3)c3ccc(Cl)cc3)cn2)cc1C(=O)O)c1ccc2c(c1)OC(F)(F)O2` [3:24, 5-{5-[(4-Chlorophenyl)(cyclopropylmethyl)amino]picolinoyl}-2-[3,4-(difluoromethylenedioxy)benzamido]benzoic acid] the value was 16 nM; for `O=C(Nc1ccc(C(=O)c2ccc(N(CC3CC3)c3ccc(Cl)cc3)cn2)cc1C(=O)O)c1ccc2c(c1)OCCO2` [3:25, 5-{5-[(4-Chlorophenyl)(cyclopropylmethyl)amino]picolinoyl}-2-(3,4-ethylene-dioxybenzamido)benzoic acid], 11 nM; for `COc1ccc(C(=O)Nc2ccc(C(=O)c3ccc(N(C)c4ccc(Cl)cc4)cn3)cc2C(=O)O)cc1OC` [3:26, 5-{5-[(4-Chlorophenyl)(methyl)amino]picolinoyl}-2-(3,4-dimethoxybenzamido)-benzoic acid], 37 nM.
Same read-out and setting: the figure for `COc1cccc(C(=O)Nc2ccc(C(=O)c3ccc(N(C)c4ccc(Cl)cc4)cn3)cc2C(=O)O)c1OC` [3:27, 5-{5-[(4-Chlorophenyl)(methyl)amino]picolinoyl}-2-(2,3-dimethoxybenzamido)-benzoic acid] is 40 nM; for `CN(c1ccc(Cl)cc1)c1ccc(C(=O)c2ccc(NC(=O)c3cccc4c3OCO4)c(C(=O)O)c2)nc1` [3:28, 5-{5-[(4-Chlorophenyl)(methyl)amino]picolinoyl}-2-(2,3-methylenedioxy-benzamido)benzoic acid] it is 50 nM; for `COc1cc(OC)cc(C(=O)Nc2ccc(C(=O)c3ccc(N(C)c4ccc(Cl)cc4)cn3)cc2C(=O)O)c1` [3:29, 5-{5-[(4-Chlorophenyl)(methyl)amino]picolinoyl}-2-(3,5-dimethoxybenzamido)-benzoic acid] it is 12 nM.
Same read-out and setting: for `COc1cccc(F)c1C(=O)Nc1ccc(C(=O)c2ccc(N(C)c3ccc(Cl)cc3)cn2)cc1C(=O)O` [3:30, 5-{5-[(4-Chlorophenyl)(methyl)amino]picolinoyl}-2-(2-fluoro-6-methoxybenz-amido)benzoic acid] the value was 26 nM.
For the molecule `COc1c(F)c(F)cc(C(=O)Nc2ccc(C(=O)c3ccc(N(C)c4ccc(Cl)cc4)cn3)cc2C(=O)O)c1F` [3:31, 5-{5-[(4-Chlorophenyl)(methyl)amino]picolinoyl}-2-(2,4,5-trifluoro-3-methoxy-benzamido)benzoic acid], the IC50 stood at 61 nM.
Still for that read-out and setting: the figure for `COc1ccc(C(=O)Nc2ccc(C(=O)c3ccc(N(C)c4ccc(Cl)cc4)cn3)cc2C(=O)O)c(C)c1` [3:32, 5-{5-[(4-Chlorophenyl)(methyl)amino]picolinoyl}-2-(4-methoxy-2-methylbenz-amido)benzoic acid] is 42 nM; for `COc1cccc(C(=O)Nc2ccc(C(=O)c3ccc(N(C)c4ccccc4)cn3)cc2C(=O)O)c1` [3:33, 2-(3-Methoxybenzamido)-5-{5-[(methyl)(phenyl)amino]picolinoyl}benzoic acid] it is 226 nM.
Same read-out and setting: for `COc1ccc(C(=O)Nc2ccc(C(=O)c3ccc(N(C)c4ccccc4)cn3)cc2C(=O)O)c(OC)c1` [3:34, 2-(2,4-Dimethoxybenzamido)-5-{5-[(methyl)(phenyl)amino]picolinoyl}benzoic acid] the value was 163 nM; for `COc1cc(F)c(C(=O)Nc2ccc(C(=O)c3ccc(N(C)c4ccc(Cl)cc4)cn3)cc2C(=O)O)c(F)c1` [3:35, 5-{5-[(4-Chlorophenyl)(methyl)amino]picolinoyl}-2-(2,6-difluoro-4-methoxy-benzamido)benzoic acid], 73 nM.
On to `COc1ccc(C(=O)Nc2ccc(C(=O)c3ccc(N(C)c4ccc(Cl)cc4)cn3)cc2C(=O)O)c(Cl)c1OC` [3:36, 2-(2-Chloro-3,4-dimethoxybenzamido)-5-{5-[(4-chlorophenyl)(methyl)amino]-picolinoyl}benzoic acid], for which the IC50 turned out to be 39 nM.
Turning to `COc1cccc(C(=O)Nc2ccc(C(=O)c3ccc(N(C)Cc4ccc(Cl)cc4)cn3)cc2C(=O)O)c1` [3:37, 5-{5-[(4-Chlorobenzyl)(methyl)amino]picolinoyl}-2-(3-methoxybenzamido)-benzoic acid], the IC50 is 21 nM.
On the same count and under the same terms, the figure for `CN(c1ccc(Cl)cc1)c1ccc(C(=O)c2ccc(NC(=O)c3cccc(Br)c3)c(C(=O)O)c2)nc1` [3:38, 2-(3-Bromobenzamido)-5-{5-[(4-chlorophenyl)(methyl)amino]picolinoyl}benzoic acid] is 68 nM; for `CN(c1ccc(Cl)cc1)c1ccc(C(=O)c2ccc(NC(=O)c3cccc(C(F)(F)F)c3)c(C(=O)O)c2)nc1` [3:39, 5-{5-[(4-chlorophenyl)(methyl)amino]picolinoyl}-2-(3-trifluoromethylbenzamido)-benzoic acid] it is 91 nM.
The same measure, in the same setting: for `CN(c1ccc(Cl)cc1)c1ccc(C(=O)c2ccc(NS(=O)(=O)c3ccccc3)c(C(=O)O)c2)nc1` [4:1, 5-{5-[(4-Chlorophenyl)(methyl)amino]picolinoyl}-2-(phenylsulfonamido)benzoic acid] the value was 39 nM; for `CCCCOc1ccc(S(=O)(=O)Nc2ccc(C(=O)c3ccc(N(C)c4ccc(Cl)cc4)cn3)cc2C(=O)O)cc1` [4:2, 2-(4-Butoxyphenylsulfonamido)-5-{5-[(4-chlorophenyl)(methyl)amino]picolinoyl}-benzoic acid], 23 nM; for `CN(c1ccc(Cl)cc1)c1ccc(C(=O)c2ccc(NS(=O)(=O)c3cccs3)c(C(=O)O)c2)nc1` [4:3, 5-{5-[(4-Chlorophenyl)(methyl)amino]picolinoyl}-2-(2-thienylsulfonamido)benzoic acid], 40 nM.
Turning to `CN(c1ccc(Cl)cc1)c1ccc(C(=O)c2ccc(NS(=O)(=O)c3ccc(C(F)(F)F)cc3)c(C(=O)O)c2)nc1` [4:4, 5-{5-[(4-Chlorophenyl)(methyl)amino]picolinoyl}-2-(4-trifluoromethylphenylsulfon-amido)benzoic acid], the half-inhibitory concentration (IC50) came to 43 nM.
Still for that read-out and setting: for `CN(c1ccc(Cl)cc1)c1ccc(C(=O)c2ccc(NS(=O)(=O)c3ccc(Cl)cc3)c(C(=O)O)c2)nc1` [4:5, 5-{5-[(4-Chlorophenyl)(methyl)amino]picolinoyl}-2-(4-chlorophenylsulfonamido)-benzoic acid] the value was 33 nM; for `O=C(c1ccc(NS(=O)(=O)c2ccc(Cl)cc2)c(C(=O)O)c1)c1ccc(N(CC2CC2)c2ccc(Cl)cc2)cn1` [4:6, 2-(4-Chlorophenylsulfonamido)-5-{5-[(4-chlorophenyl)(cyclopropylmethyl)-amino]picolinoyl}benzoic acid], 17 nM.
Same read-out and setting: for `CN(c1ccc(Cl)cc1)c1ccc(C(=O)c2ccc(C(=O)c3ccccc3)c(C(=O)O)c2)nc1` [5:1, 2-Benzoyl-5-{5-[(4-chlorophenyl)(methyl)amino]picolinoyl}benzoic acid] the value was 72 nM.
Turning to `CN(c1ccc(C(F)(F)F)cc1)c1ccc(C(=O)c2ccc(C(=O)c3ccccc3)c(C(=O)O)c2)nc1` [5:2, 2-Benzoyl-5-{5-[(methyl)(4-trifluoromethylphenyl)amino]picolinoyl}benzoic acid], the 50% inhibitory concentration (IC50) is 78 nM.
The same measure, in the same setting: for `COc1ccc(C(=O)c2ccc(C(=O)c3ccc(N(C)c4ccc(Cl)cc4)cn3)cc2C(=O)O)cc1` [5:3, 5-{5-[(4-Chlorophenyl)(methyl)amino]picolinoyl}-2-(4-methoxybenzoyl)benzoic acid] the value was 50 nM; for `COc1ccc(C(=O)c2ccc(C(=O)c3ccc(N(CC4CC4)c4ccc(Cl)cc4)cn3)cc2C(=O)O)cc1` [5:4], 29 nM.
The same measure, in the same setting: the figure for `COc1ccc(C(=O)c2ccc(C(=O)c3ccc(N(CC4CC4)c4ccc(Cl)cc4F)cn3)cc2C(=O)O)cc1` [5:5] is 46 nM.
On the same count and under the same terms, the figure for `COc1ccc(C(=O)c2ccc(C(=O)c3ccc(N(CC(F)(F)F)c4ccc(Cl)cc4F)cn3)cc2C(=O)O)cc1` [5:6, 5-{5-[(4-Chloro-2-fluorophenyl)(2,2,2-trifluoroethyl)amino]picolinoyl}-2-(4-methoxybenzoyl)benzoic acid] is 401 nM.
As to `COc1cccc(C(=O)c2ccc(C(=O)c3ccc(N(C)c4ccc(Cl)cc4)cn3)cc2C(=O)O)c1` [5:7, 5-{5-[(4-Chlorophenyl)(methyl)amino]picolinoyl}-2-(3-methoxybenzoyl)benzoic acid], the half-inhibitory concentration (IC50) worked out at 36 nM.
On the same count and under the same terms, the figure for `COc1ccccc1C(=O)c1ccc(C(=O)c2ccc(N(C)c3ccc(Cl)cc3)cn2)cc1C(=O)O` [5:8, 5-{5-[(4-Chlorophenyl)(methyl)amino]picolinoyl}-2-(2-methoxybenzoyl)benzoic acid] is 154 nM; for `CCOc1ccc(C(=O)c2ccc(C(=O)c3ccc(N(C)c4ccc(Cl)cc4)cn3)cc2C(=O)O)cc1` [5:9, 5-{5-[(4-Chlorophenyl)(methyl)amino]picolinoyl}-2-(4-ethoxybenzoyl)benzoic acid] it is 101 nM; for `COc1ccc(C(=O)c2ccc(C(=O)c3ccc(N(C)c4ccc(Cl)cc4)cn3)cc2C(=O)O)c(OC)c1` [5:10, 5-{5-[(4-Chlorophenyl)(methyl)amino]picolinoyl}-2-(2,4-dimethoxybenzoyl)-benzoic acid] it is 68 nM.

The same assay, now with this note: 5 min; total concentration of title compound in the assay 10 μM.
Turning to `CN(c1ccc(Cl)cc1)c1ccc(C(=O)c2ccc(NS(=O)(=O)c3cccs3)c(C(=O)O)c2)nc1` [4:3, 5-{5-[(4-Chlorophenyl)(methyl)amino]picolinoyl}-2-(2-thienylsulfonamido)benzoic acid], the inhibition (usually the share of the control response that was lost under treatment) at 10 µM was 99%.
The same measure, in the same setting: the figure for `CN(c1ccc(Cl)cc1)c1ccc(C(=O)c2ccc(NS(=O)(=O)c3ccc(C(F)(F)F)cc3)c(C(=O)O)c2)nc1` [4:4, 5-{5-[(4-Chlorophenyl)(methyl)amino]picolinoyl}-2-(4-trifluoromethylphenylsulfon-amido)benzoic acid] is 100%; for `CN(c1ccc(Cl)cc1)c1ccc(C(=O)c2ccc(NS(=O)(=O)c3ccc(Cl)cc3)c(C(=O)O)c2)nc1` [4:5, 5-{5-[(4-Chlorophenyl)(methyl)amino]picolinoyl}-2-(4-chlorophenylsulfonamido)-benzoic acid] it is 100%.

Still in this assay, the particulars now being: compound concentration 3 μM.
As for `CN(c1ccc(Cl)cc1)c1ccc(C(=O)c2ccc(NS(=O)(=O)c3ccccc3)c(C(=O)O)c2)nc1` [4:1, 5-{5-[(4-Chlorophenyl)(methyl)amino]picolinoyl}-2-(phenylsulfonamido)benzoic acid], the inhibition at 3 µM stood at 100%.
The same measure, in the same setting: for `CCCCOc1ccc(S(=O)(=O)Nc2ccc(C(=O)c3ccc(N(C)c4ccc(Cl)cc4)cn3)cc2C(=O)O)cc1` [4:2, 2-(4-Butoxyphenylsulfonamido)-5-{5-[(4-chlorophenyl)(methyl)amino]picolinoyl}-benzoic acid] the value was 100%.
